Tested on: serotonin receptor
Assay: Regional brain biodistribution of 99mTcN-DESI (Group A vs Group B with unlabeled desipramine)
Format: in vivo, SD rats
Description: The rats were divided into two groups, group A and group B. Into each rat in group A was injected 20 μCi of the ^99mTcN-DESI. Into each rat in group B were injected 20 μCi of the ^99mTcN-DESI and 1.0 mg/kg of unlabeled desipramine at the same time.
SD rats weighing about 250 g were put under intraperitoneal anesthesia with a mixture of xylazine (18 mg/kg) and ketamine (15 mg/kg) and given an injection in the jugular vein. Then, the organs (brain, heart, lung, liver, spleen, kidney, muscle, adrenal, and submaxillary gland) were excised from the rats at different intervals of time, washed and then weighed. In addition, blood samples were collected and then weighed. The data on the biodistribution are expressed as the mean±significant difference of the percentage of radioactivity level per gram of the organ weight based on the dose of radioactivity, (% dose/g). The measurement was carried out using groups of 3 rats each.

[1] = Group A (complex alone), 30 min
[2] = Group A (complex alone), 60 min
[3] = Group B (with 1.0 mg/kg unlabeled desipramine), 5 min
[4] = Group B (with 1.0 mg/kg unlabeled desipramine), 30 min
[5] = Group B (with 1.0 mg/kg unlabeled desipramine), 60 min

COCCC[P+]1(CCCOC)CCN(CCOC)CC[P+](CCCOC)(CCCOC)[99Tc-2]12(#[N])[NH]C(C(=O)N(C)CCCN1c3ccccc3CCc3ccccc31)C[S]2 (stereo not drawn) [^99mTcN-DESI] gave a Cerebellum % dose/g (Group A (complex alone), 5 min) of 0.064 ± 0.005 % dose/g, a Cortex % dose/g (Group A (complex alone), 5 min) of 0.029 ± 0.004 % dose/g and a Hypothalamus % dose/g (Group A (complex alone), 5 min) of 0.325 ± 0.058 % dose/g. For the same compound, the Medulla % dose/g (Group A (complex alone), 5 min) was 0.057 ± 0.004 % dose/g, the Striatum % dose/g (Group A (complex alone), 5 min) was 0.076 ± 0.025 % dose/g and the Cerebellum % dose/g [1] was 0.039 ± 0.015 % dose/g. For the same compound, the Cortex % dose/g [1] was 0.021 ± 0.002 % dose/g, the Hypothalamus % dose/g [1] was 0.408 ± 0.085 % dose/g and the Medulla % dose/g [1] was 0.046 ± 0.003 % dose/g. The Striatum % dose/g [1] was 0.054 ± 0.017 % dose/g, the Cerebellum % dose/g [2] was 0.028 ± 0.012 % dose/g and the Cortex % dose/g [2] was 0.021 ± 0.002 % dose/g. For the same compound, the Hypothalamus % dose/g [2] was 0.364 ± 0.069 % dose/g, the Medulla % dose/g [2] was 0.029 ± 0.006 % dose/g and the Striatum % dose/g [2] was 0.07 ± 0.019 % dose/g. The Cerebellum % dose/g [3] was 0.048 ± 0.008 % dose/g, the Cortex % dose/g [3] was 0.014 ± 0.004 % dose/g and the Hypottalamus % dose/g [3] was 0.125 ± 0.029 % dose/g. For the same compound, the Medulla % dose/g [3] was 0.038 ± 0.001 % dose/g, the Striatum % dose/g [3] was 0.053 ± 0.001 % dose/g and the Cerebellum % dose/g [4] was 0.035 ± 0.007 % dose/g. For the same compound, the Cortex % dose/g [4] was 0.009 ± 0.002 % dose/g, the Hypottalamus % dose/g [4] was 0.162 ± 0.106 % dose/g and the Medulla % dose/g [4] was 0.027 ± 0.013 % dose/g. The Striatum % dose/g [4] was 0.023 ± 0.003 % dose/g, the Cerebellum % dose/g [5] was 0.031 ± 0.011 % dose/g and the Cortex % dose/g [5] was 0.006 ± 0.000 % dose/g. For the same compound, the Hypottalamus % dose/g [5] was 0.152 ± 0.033 % dose/g, the Medulla % dose/g [5] was 0.016 ± 0.002 % dose/g and the Striatum % dose/g [5] was 0.035 ± 0.011 % dose/g. For the same compound, the accumulation in cortex (group A, no unlabeled desipramine) was “specifically accumulated”, the accumulation in cortex (group B, unlabeled desipramine administered) was “very small amount” and the “specificity for serotonin receptor” value (suggested from group A vs group B cortex accumulation) was “retained specificity for serotonin receptor”.

From patent US20020048549A1, “Radioactive transition metal nitride heterocomplex” (priority 1996, published 2002)
